“Also recorded” adds a separate entry of the source.
Experiments:
primary mouse podocytes = test: Cell relaxation and strain mapping with microbead-embedded hydrogels after CytoD; assay type: cell-based
Method: Fluorescent microbeads with a diameter of 0.2 μm (Invitrogen, F8801) were added to the hydrogel's pre-cross-linking solution with a 1:60 dilution ratio before the cross-linking step. After solidification, hydrogels were used for the strain mapping as reported earlier. Briefly, primary mouse podocytes were isolated as described above, seeded on the hydrogels, and allowed to spread for 24 hours. Next, the cells were transferred to a live-imaging chamber before adding CytoD to the culture medium (CytoD, Sigma-Aldrich, 22144-77-0; final concentration, 20 μM). In the final step, the culture medium was changed to 10% SDS to remove the attached cells completely. Cell relaxation and microbead movements were recorded immediately after adding CytoD or 10% SDS, and the strain field was calculated using a strain mapping algorithm that was developed in our previous study.
(§1) For counting and scoring cell phenotypes, imaged podocytes were divided into several categories, including (i) cells with SLSs centrally and in the periphery, (ii) cells with SLSs only in the periphery, (iii) cells with loose striated patterns of synaptopodin and myosin IIA instead of a mat of SLSs (i.e., widely spaced SLSs), and, lastly, (iv) cells without SLSs. For measuring cell length, the longest axis of the cell was determined (mostly along the micropattern direction), and the length was determined through ImageJ (v1.53e with Bio-Formats plugin).

[1] = tested on: podocytes from isolated mouse glomeruli; test: Glomerular culture and podocyte spreading on ECM-micropatterned hydrogels; assay type: cell-based; conditions: glomeruli cultured 2 days on micropatterned PAAm hydrogels
Excerpt: To test which micropatterned ECM proteins best support podocytes, mouse glomeruli were isolated and cultured on hydrogels coated with Lam-521, collagen IV, or fibronectin. […] Furthermore, the PAAm hydrogel was coated with Lam-521 and micropatterned protein-free patches onto the substrate using a PDMS stamp that removed Lam-521, leaving an inverse of the previous Lam-521 micropatterns interdigitated with microscale patches of exposed PAAm.
Next, the PDMS stamp was cleaned by sonication (Branson) for 20 min and washed in 50% ethanol solution before drying under nitrogen flow followed by plasma cleaning for 2 min (Harrick Plasma). Last, the PDMS stamp micropattern areas were soaked in different ECM solutions [laminin 521 (50 μg/ml; Biolamina, LN521-05), fibronectin (Corning, 356008), or collagen IV (Corning, 354233) in phosphate-buffered saline (PBS)] and left to set for 1 hour at room temperature.
After air-drying the ECM proteins atop the PDMS stamp, the excess solution was removed, and the stamp was dried further using nitrogen flow. The freshly prepared hydroxyl-PAAm hydrogel was also dried out by treatment with nitrogen flow. […]

primary podocytes = test: Myosin II inhibition with blebbistatin: sarcomere-like structures (SLSs) in primary podocytes, immunostained for synaptopodin and myosin IIA; assay type: cell-based, mouse
Method: After spreading, cultured podocytes on the hydrogels or glass were fixed in 4% paraformaldehyde (Electron Microscopy Sciences, 15712) for 10 min at room temperature followed by washing with 1×PBS, three times for 6 min each, and then permeabilized using 0.05% Triton X-100 for 10 min at room temperature. Next, samples were blocked using 2% bovine serum albumin (Sigma-Aldrich, A7906) for 30 min at room temperature before applying the primary antibodies overnight at 4° C. Next, samples were washed with 1×PBS, three times for 6 min each before incubating them with the secondary antibodies in PBS for 1 hour at room temperature. Last, the samples were washed in 1×PBS, three times for 6 min, and prepared for mounting using Invitrogen Slow Fade mounting medium (Invitrogen, S36917). The cover glass holding the sample (hydrogel and cells) was bonded to a second cover glass using nail polish. The primary antibodies used were myosin IIA (BioLegend, 909801, rabbit anti-mouse), myosin IIA (Abnova, clone 3C7, mouse anti-human, NH2-terminus), synaptopodin (Synaptic Systems, 163004, guinea pig anti-mouse), laminin α5 [clone 4C7, mouse anti-human], fibronectin (Sigma-Aldrich, F3648, rabbit anti-human), collagen IV (SouthernBiotech, 1340-01, goat anti-human), nephrin (R&D Systems, AF3159, goat anti-mouse), and α-SMA (Invitrogen, 14-9760-82). Alexa Fluor 555 phalloidin (Thermo Fisher Scientific, A34055) was used for actin staining. For mouse myosin antibodies (clone 3C7), samples were antigen retrieved in TE (Tris-EDTA) buffer (pH 9.0) at 65° C. for 4 hours before the permeabilization step.
Blebbistatin (EMD Millipore, 203389-5) was used to inhibit the function of myosin II in the podocytes. […] After 2 hours of treatment, the samples were washed with PBS and immediately fixed and stained as mentioned above.
Sarcomeric structures were measured using ImageJ (v1.53e with Bio-Formats plugin). Briefly, fluorescence intensity maps were acquired by plotting the intensity along a line drawn perpendicular to the sarcomere structure. For the histogram, the spacing of each sarcomere is calculated by recording the peak location in the intensity map, and n for each group represents the total sarcomere number calculated in that group. For averaged sarcomeric spacing, the mean values were calculated for each intensity map (i.e., each stress fiber that is no less than 6 μm long), while n for each group represents the number of stress fibers analyzed in that group.
as §1

Molecule: C=C1[C@@H](C)[C@H]2[C@H](Cc3ccccc3)NC(=O)[C@]23[C@H](OC(C)=O)/C=C/[C@@](C)(O)C(=O)[C@@H](C)C/C=C/[C@H]3[C@@H]1O [CytoD, cytochalasin D]
- cell length before and after CytoD (primary mouse podocytes; 0.9 kPa substrates, 15 min CytoD): most cells elongated along their axes; also recorded: increases in cell length associated with 15 min of CytoD treatment were statistically significant
- cell length before and after CytoD (primary mouse podocytes; 6 kPa substrates, CytoD): Less, but still significant cell relaxation
- substrate strains associated with treatment (primary mouse podocytes; 6 kPa substrates, CytoD compared with subsequent SDS treatment): much larger than those associated with subsequent SDS treatment
- cell relaxation after actin disruption (primary mouse podocytes; reseeded primary podocytes, CytoD 20 μM, video recording): significant cell relaxation

Molecule: human laminin α5β2γ1 trimer [Lam-521]
- podocyte population of micropatterns [1]: podocytes populated micropatterns coated with Lam-521

Molecule: Cc1ccc2c(c1)C(=O)C1(O)CCN(c3ccccc3)C1=N2 (centres unmarked) [blebbistatin, Blebbistatin]
- SLS formation (primary podocytes; 10 nM blebbistatin, 0.2- or 0.9-kPa hydrogels (FIG. 4F)): SLSs failed to form; also recorded: caused the loss of SLSs with a lower concentration of blebbistatin
- SLS formation and sarcomeric spacing (primary podocytes; 10 nM blebbistatin, 6.0-kPa hydrogels or glass substrates (FIGS. 4F and G), listed as Blebb): myosin inhibition led to wider sarcomeric spacing
- effect on SLSs (primary podocytes; 2 μM blebbistatin (milder myosin inhibition)): insufficient to disrupt the SLSs at the cell periphery but sufficient to disrupt those in the centers of the cells
- effect on SLSs (primary podocytes; 10 μM blebbistatin, 2 hours, 6.0-kPa PAAm hydrogels and cover glass with Lam-521): caused aggregation of synaptopodin in the center of the cells and increased sarcomeric spacing in SLSs that persisted at the cell periphery
- effect on SLSs (primary podocytes; 100 μM blebbistatin, 2 hours, 6.0-kPa PAAm hydrogels and cover glass with Lam-521): nearly eliminated SLSs
- disruption or loss of SLSs, concentration not given (primary podocytes; podocytes on glass or patterned hydrogels (FIGS. 4D and E)): disrupted the sarcomeric structures of SLSs in a way that depended on the dose, substrate stiffness, and position; also recorded: caused a marked loss of SLSs

— patent US20240409902A1, “SYSTEMS AND METHODS FOR CULTURING PODOCYTES AND USES THEREOF” (Washington University, priority 2021, published 2024)
